Experimental findings from patent US10781184B2, “Substituted benzazinones as antibacterial compounds” (GlaxoSmithKline Intellectual Property Development Limited, priority 2015, dated 2020) are described below.

Converted amounts (≈) assume the structure as drawn. Where a name gives a salt, the structure may show the parent alone. Read-outs that look alike come from different tables or passages of the source. A value given as a limit tells only on which side of the number the result lay.

Common to all, as to assay: Minimum Inhibitory Concentration Assay (broth microdilution, CLSI)
Holding throughout (type): cell-based
A general note: Dilution methods test growth across graded concentrations, often in twofold steps.

One assay deals with E. coli 7623. The method, then: (§1) Methods for dilution Antimicrobial Susceptibility TestS for Bacteria that Grow Aerobically; Approved Standard-Ninth Edition; M7-A9, Vol. 32 No. 2, Clinical and Laboratory Standards Institute, Wayne, Pa.; January 2012.
(§2) Performance Standards for Antimicrobial Susceptibility Testing; Twenty-Second Informational Supplement; M100-S22 Vol. 32 No. 3; Clinical and Laboratory Standards Institute, Wayne, Pa., January 2012.
(§3) Broth microdilution was performed in accordance with the CLSI recommended procedures for aerobic bacteria [CLSI, 2012].
(§4) Comparator compound stock solutions were prepared as recommended by CLSI [CLSI, 2012]. The stock solutions of novel GSK compounds were prepared at 512 mcg/mL by dissolving the compounds in dimethyl sulfoxide (DMSO) and diluting 1:10 with sterile water. The 512 mcg/mL stock was further serially diluted in the recommended broth media for the organisms being tested. Final DMSO concentration in test wells was less than 1%.
(§5) Microtitre plates were prepared using the Microlab STAR™ (Hamilton Co., Reno, Nev.) to add media (50 μL) and the Microlab AT Plus system (Hamilton Co., Reno, Nev.) to serially dilute the compounds (final concentration range 0.125 to 128 mcg/mL) and to add inoculum. A positive growth control well containing medium and the test isolate was included on each microtitre plate. Ten microliters of the test medium from the positive growth control well was plated to determine the purity of each test isolate. A microtitre mirror reader (Cooke Instruments, Ltd., England) was used to assist in determining the microdilution MIC endpoints. The MIC was determined as the lowest concentration of compound that inhibited visible growth of the organism.

In another assay the test system is K. pneumoniae 1161486. How it is done: as §1, §2, §3, §4, §5
A further assay concerns P. aeruginosa PA01. The settings on record: Pseudomonas aeruginosa. How it is done:
as §1, §2, §3, §4, §5

The mark [1] stands for this setting: Escherichia coli, strain 7623, broth microdilution, read-out: E. coli 7623 MIC.
The mark [2] stands for this setting: Klebsiella pneumoniae, strain 1161486, broth microdilution, read-out: K. pneumoniae 1161486 MIC.
Setting [3] is: strain PA01, broth microdilution, read-out: P. aeruginosa PA01 MIC.
[4] abbreviates: Escherichia coli, 7623, read-out: E. coli 7623 MIC (ug/mL).
[5] abbreviates: Klebsiella pneumoniae, 1161486, read-out: K. pneumoniae 1161486 MIC (ug/mL).
The mark [6] stands for this setting: PA01, read-out: P. aeruginosa PA01 MIC (ug/mL).

In the case of `C[C@@](CCn1cnc2cc(-c3ccccc3)ccc2c1=O)(C(=O)NO)S(C)(=O)=O` [Example 1, (R)—N-hydroxy-2-methyl-2-(methylsulfonyl)-4-(4-oxo-7-phenylquinazolin-3(4H)-yl)butanamide], the MIC in the assay on E. coli 7623 (setting [1]) turned out to be 0.5 µg/mL (≈ 1.2 µM); in the assay with K. pneumoniae 1161486 (setting [2]), 0.25 µg/mL (≈ 0.602 µM); in the assay on P. aeruginosa PA01 (setting [3]), 1 µg/mL (≈ 2.41 µM).
In the same order, the values of `Cc1ccc(-c2ccc3c(=O)n(CC[C@](C)(C(=O)NO)S(C)(=O)=O)cnc3c2)cc1` [Example 2, (R)—N-hydroxy-2-methyl-2-(methylsulfonyl)-4-(4-oxo-7-(p-tolyl)quinazolin-3(4H)-yl)butanamide] are 0.06 µg/mL (≈ 0.14 µM), 0.125 µg/mL (≈ 0.291 µM) and 0.5 µg/mL (≈ 1.16 µM).
With `CN(C)c1ccc(-c2ccc3c(=O)n(CC[C@](C)(C(=O)NO)S(C)(=O)=O)cnc3c2)cc1` [Example 4, (R)-4-(7-(4-(dimethylamino)phenyl)-4-oxoquinazolin-3(4H)-yl)-N-hydroxy-2-methyl-2-(methylsulfonyl)butanamide Trifluoroacetic Acid Salt], the MIC is at most 0.03 µg/mL with E. coli 7623 (setting [4]), 0.25 µg/mL in the assay on K. pneumoniae 1161486 (setting [5]) and 8 µg/mL with P. aeruginosa PA01 (setting [6]).
Turning to `C[C@@](CCn1cnc2cc(-c3ccc(OC(F)F)cc3)ccc2c1=O)(C(=O)NO)S(C)(=O)=O` [Example 5, (R)-4-(7-(4-(difluoromethoxy)phenyl)-4-oxoquinazolin-3(4H)-yl)-N-hydroxy-2-methyl-2-(methylsulfonyl)butanamide], the MIC is at most 0.03 µg/mL in the assay on E. coli 7623 (setting [1]), 0.06 µg/mL (≈ 0.125 µM) in the assay on K. pneumoniae 1161486 (setting [2]) and 2 µg/mL (≈ 4.15 µM) in the assay on P. aeruginosa PA01 (setting [3]).
In the same order, the values of `C[C@@](CCn1cnc2cc(-c3cccc(F)c3F)ccc2c1=O)(C(=O)NO)S(C)(=O)=O` [Example 6, (R)-4-(7-(2,3-difluorophenyl)-4-oxoquinazolin-3(4H)-yl)-N-hydroxy-2-methyl-2-(methylsulfonyl)butanamide] are at most 0.032 µg/mL, 0.125 µg/mL (≈ 0.277 µM) and 0.5 µg/mL (≈ 1.11 µM).
In the same order, the values of `C[C@@](CCn1cnc2cc(-c3cc(F)ccc3F)ccc2c1=O)(C(=O)NO)S(C)(=O)=O` [Example 7, (R)-4-(7-(2,5-difluorophenyl)-4-oxoquinazolin-3(4H)-yl)-N-hydroxy-2-methyl-2-(methylsulfonyl)butanamide] are 0.06 µg/mL (≈ 0.133 µM), 0.25 µg/mL (≈ 0.554 µM) and 2 µg/mL (≈ 4.43 µM).
As for `C[C@@](CCn1cnc2cc(-c3ccccc3F)ccc2c1=O)(C(=O)NO)S(C)(=O)=O` [Example 8, (R)-4-(7-(2-fluorophenyl)-4-oxoquinazolin-3(4H)-yl)-N-hydroxy-2-methyl-2-(methylsulfonyl)butanamide], the MIC is at most 0.03 µg/mL in the assay with E. coli 7623 (setting [1]), 0.125 µg/mL (≈ 0.288 µM) in the assay on K. pneumoniae 1161486 (setting [2]) and 0.5 µg/mL (≈ 1.15 µM) in the assay on P. aeruginosa PA01 (setting [3]).
`Cc1ccc(-c2ccc3c(=O)n(CC[C@](C)(C(=O)NO)S(C)(=O)=O)cnc3c2)cc1F` [Example 9, (R)-4-(7-(3-fluoro-4-methylphenyl)-4-oxoquinazolin-3(4H)-yl)-N-hydroxy-2-methyl-2-(methylsulfonyl)butanamide]: the values for the MIC in the assay with E. coli 7623 (setting [1]), with K. pneumoniae 1161486 (setting [2]) and in the assay on P. aeruginosa PA01 (setting [3]) were at most 0.03 µg/mL, 0.125 µg/mL (≈ 0.279 µM) and 8 µg/mL (≈ 17.9 µM), respectively.
In the same order, the values of `C[C@@](CCn1cnc2cc(-c3ccc(C(F)F)cc3)ccc2c1=O)(C(=O)NO)S(C)(=O)=O` [Example 10, (R)-4-(7-(4-(difluoromethyl)phenyl)-4-oxoquinazolin-3(4H)-yl)-N-hydroxy-2-methyl-2-(methylsulfonyl)butanamide] are 0.06 µg/mL (≈ 0.129 µM), 0.25 µg/mL (≈ 0.537 µM) and 1 µg/mL (≈ 2.15 µM).
In the same order, the values of `Cc1ccc(-c2cc3ncn(CC[C@](C)(C(=O)NO)S(C)(=O)=O)c(=O)c3cc2F)cc1` [Example 15, (2R)-4-[6-fluoro-7-(4-methylphenyl)-4-oxo-3,4-dihydroquinazolin-3-yl]-N-hydroxy-2-methanesulfonyl-2-methylbutanamide] are below 0.03 µg/mL, 0.063 µg/mL (≈ 0.141 µM) and 0.5 µg/mL (≈ 1.12 µM).
For `COc1ccc(-c2cc(F)c3c(=O)n(CC[C@](C)(C(=O)NO)S(C)(=O)=O)cnc3c2)cc1` [Example 16, (2R)-4-[5-fluoro-7-(4-methoxyphenyl)-4-oxo-3,4-dihydroquinazolin-3-yl]-N-hydroxy-2-methanesulfonyl-2-methylbutanamide] the same measures were 0.25 µg/mL (≈ 0.539 µM), 1 µg/mL (≈ 2.16 µM) and 8 µg/mL (≈ 17.3 µM).
As for `Cc1ccc(-c2ccc3c(=O)n(CC[C@](C)(C(=O)NO)S(C)(=O)=O)nnc3c2)cc1` [Example 18, (2R)—N-hydroxy-2-methanesulfonyl-2-methyl-4-[7-(4-methylphenyl)-4-oxo-3,4-dihydro-1,2,3-benzotriazin-3-yl]butanamide], the MIC turned out to be 0.5 µg/mL (≈ 1.16 µM) in the assay with E. coli 7623 (setting [1]), 1 µg/mL (≈ 2.32 µM) in the assay on K. pneumoniae 1161486 (setting [2]) and 16 µg/mL (≈ 37.2 µM) in the assay with P. aeruginosa PA01 (setting [3]).
Turning to `Cc1ccc(-c2ccc3c(=O)n(CC[C@](C)(C(=O)NO)S(C)(=O)=O)nnc3c2)c(F)c1` [Example 19, (2R)-4-[7-(2-fluoro-4-methylphenyl)-4-oxo-3,4-dihydro-1,2,3-benzotriazin-3-yl]-N-hydroxy-2-methanesulfonyl-2-methylbutanamide], the MIC with E. coli 7623 (setting [1]) was 0.125 µg/mL (≈ 0.279 µM); in the assay on K. pneumoniae 1161486 (setting [2]), 0.25 µg/mL (≈ 0.557 µM); with P. aeruginosa PA01 (setting [3]), 8 µg/mL (≈ 17.8 µM).
Take `C[C@@](CCn1cnc2cc(-c3ccc(CN4CCOCC4)cc3)c(F)cc2c1=O)(C(=O)NO)S(C)(=O)=O` [Example 20, (R)-4-(6-fluoro-7-(4-(morpholinomethyl)phenyl)-4-oxoquinazolin-3(4H)-yl)-N-hydroxy-2-methyl-2-(methylsulfonyl)butanamide hydrochloride]: the MIC with E. coli 7623 (setting [4]) amounted to 0.125 µg/mL; in the assay on K. pneumoniae 1161486 (setting [5]), 0.25 µg/mL; in the assay on P. aeruginosa PA01 (setting [6]), 4 µg/mL.
For `C[C@@](CCn1cnc2cc(-c3ccc(CCN4CCOCC4)cc3)c(F)cc2c1=O)(C(=O)NO)S(C)(=O)=O` [Example 21, (2R)-4-(6-fluoro-7-{4-[2-(morpholin-4-yl)ethyl]phenyl}-4-oxo-3,4-dihydroquinazolin-3-yl)-N-hydroxy-2-methanesulfonyl-2-methylbutanamide], the MIC in the assay with E. coli 7623 (setting [1]) came to 0.063 µg/mL (≈ 0.115 µM); with K. pneumoniae 1161486 (setting [2]), 0.5 µg/mL (≈ 0.915 µM); in the assay with P. aeruginosa PA01 (setting [3]), 4 µg/mL (≈ 7.32 µM).
For `CN(Cc1ccc(-c2cc3ncn(CC[C@](C)(C(=O)NO)S(C)(=O)=O)c(=O)c3cc2F)cc1)C1CC1` [Example 22, (2R)-4-[7-(4-{[cyclopropyl(methyl)amino]methyl}phenyl)-6-fluoro-4-oxo-3,4-dihydroquinazolin-3-yl]-N-hydroxy-2-methanesulfonyl-2-methylbutanamide], the MIC in the assay on E. coli 7623 (setting [1]) is below 0.03 µg/mL; in the assay with K. pneumoniae 1161486 (setting [2]), 0.25 µg/mL (≈ 0.484 µM); with P. aeruginosa PA01 (setting [3]), 8 µg/mL (≈ 15.5 µM).
In the same order, the values of `COCCN(C)Cc1ccc(-c2cc3ncn(CC[C@](C)(C(=O)NO)S(C)(=O)=O)c(=O)c3cc2F)c(F)c1` [Example 23, (2R)-4-[6-fluoro-7-(2-fluoro-4-{[(2-methoxyethyl)(methyl)amino]methyl}phenyl)-4-oxo-3,4-dihydroquinazolin-3-yl]-N-hydroxy-2-methanesulfonyl-2-methylbutanamide] are 0.25 µg/mL (≈ 0.452 µM), 0.5 µg/mL (≈ 0.905 µM) and 4 µg/mL (≈ 7.24 µM).
In the same order, the values of `COC1CN(CCc2ccc(-c3cc4ncn(CC[C@](C)(C(=O)NO)S(C)(=O)=O)c(=O)c4cc3F)c(F)c2F)C1` [Example 24, (2R)-4-(7-{2,3-difluoro-4-[2-(3-methoxyazetidin-1-yl)ethyl]phenyl}-6-fluoro-4-oxo-3,4-dihydroquinazolin-3-yl)-N-hydroxy-2-methanesulfonyl-2-methylbutanamide] are 0.25 µg/mL (≈ 0.429 µM), 1 µg/mL (≈ 1.72 µM) and 2 µg/mL (≈ 3.43 µM).
As for `C[C@@](CCn1cnc2cc(-c3ccc(CNC4CC4)cc3F)c(F)cc2c1=O)(C(=O)NO)S(C)(=O)=O` [Example 25, (2R)-4-(7-{4-[(cyclopropylamino)methyl]-2-fluorophenyl}-6-fluoro-4-oxo-3,4-dihydroquinazolin-3-yl)-N-hydroxy-2-methanesulfonyl-2-methylbutanamide], the MIC in the assay on E. coli 7623 (setting [1]) came to 0.063 µg/mL (≈ 0.121 µM); in the assay on K. pneumoniae 1161486 (setting [2]) it was 0.5 µg/mL (≈ 0.961 µM); in the assay with P. aeruginosa PA01 (setting [3]) it was 1 µg/mL (≈ 1.92 µM).
For `C[C@@](CCn1cnc2cc(-c3ccc(CN4CCOCC4)cc3F)c(F)cc2c1=O)(C(=O)NO)S(C)(=O)=O` [Example 26, (2R)-4-(6-fluoro-7-{2-fluoro-4-[(morpholin-4-yl)methyl]phenyl}4-oxo-3,4-dihydroquinazolin-3-yl)-N-hydroxy-2-methanesulfonyl-2-methylbutanamide] the same measures were 0.125 µg/mL (≈ 0.227 µM), 0.5 µg/mL (≈ 0.908 µM) and 4 µg/mL (≈ 7.27 µM).
For the compound `C[C@@](CCn1cnc2cc(-c3ccc(CCO)cc3F)c(F)cc2c1=O)(C(=O)NO)S(C)(=O)=O` [Example 27, (2R)-4-{6-fluoro-7-[2-fluoro-4-(2-hydroxyethyl)phenyl]-4-oxo-3,4-dihydroquinazolin-3-yl}-N-hydroxy-2-methanesulfonyl-2-methylbutanamide], the MIC is below 0.03 µg/mL with E. coli 7623 (setting [1]), 1 µg/mL (≈ 2.02 µM) in the assay on K. pneumoniae 1161486 (setting [2]) and 2 µg/mL (≈ 4.04 µM) with P. aeruginosa PA01 (setting [3]).
